Experimental data as given in patent publication US12649727B2, “EFGR inhibitor, preparation method therefor and application thereof” (Abbisko Therapeutics Co., Ltd, priority 2020, dated 2026).

Experiments:
Type in all cases: cell-based
[1] = molecular target: Ba/F3 EGFR-V769_D770insASV (Homo sapiens, UniProt P00533, DUP767-769, cells depend on it); assay: Proliferation experiment of Ba/F3 cell line, EGFR-V769_D770insASV (CellTiter-Glo); details: cultured for 72 hrs with compound, CTG analysis, read-out: Ba/F3 EGFR-V769_D770insASV IC50
Ba/F3 EGFR-V769_D770insASV, sequence (P00533 with tags, fused parts or gaps DUP767-769): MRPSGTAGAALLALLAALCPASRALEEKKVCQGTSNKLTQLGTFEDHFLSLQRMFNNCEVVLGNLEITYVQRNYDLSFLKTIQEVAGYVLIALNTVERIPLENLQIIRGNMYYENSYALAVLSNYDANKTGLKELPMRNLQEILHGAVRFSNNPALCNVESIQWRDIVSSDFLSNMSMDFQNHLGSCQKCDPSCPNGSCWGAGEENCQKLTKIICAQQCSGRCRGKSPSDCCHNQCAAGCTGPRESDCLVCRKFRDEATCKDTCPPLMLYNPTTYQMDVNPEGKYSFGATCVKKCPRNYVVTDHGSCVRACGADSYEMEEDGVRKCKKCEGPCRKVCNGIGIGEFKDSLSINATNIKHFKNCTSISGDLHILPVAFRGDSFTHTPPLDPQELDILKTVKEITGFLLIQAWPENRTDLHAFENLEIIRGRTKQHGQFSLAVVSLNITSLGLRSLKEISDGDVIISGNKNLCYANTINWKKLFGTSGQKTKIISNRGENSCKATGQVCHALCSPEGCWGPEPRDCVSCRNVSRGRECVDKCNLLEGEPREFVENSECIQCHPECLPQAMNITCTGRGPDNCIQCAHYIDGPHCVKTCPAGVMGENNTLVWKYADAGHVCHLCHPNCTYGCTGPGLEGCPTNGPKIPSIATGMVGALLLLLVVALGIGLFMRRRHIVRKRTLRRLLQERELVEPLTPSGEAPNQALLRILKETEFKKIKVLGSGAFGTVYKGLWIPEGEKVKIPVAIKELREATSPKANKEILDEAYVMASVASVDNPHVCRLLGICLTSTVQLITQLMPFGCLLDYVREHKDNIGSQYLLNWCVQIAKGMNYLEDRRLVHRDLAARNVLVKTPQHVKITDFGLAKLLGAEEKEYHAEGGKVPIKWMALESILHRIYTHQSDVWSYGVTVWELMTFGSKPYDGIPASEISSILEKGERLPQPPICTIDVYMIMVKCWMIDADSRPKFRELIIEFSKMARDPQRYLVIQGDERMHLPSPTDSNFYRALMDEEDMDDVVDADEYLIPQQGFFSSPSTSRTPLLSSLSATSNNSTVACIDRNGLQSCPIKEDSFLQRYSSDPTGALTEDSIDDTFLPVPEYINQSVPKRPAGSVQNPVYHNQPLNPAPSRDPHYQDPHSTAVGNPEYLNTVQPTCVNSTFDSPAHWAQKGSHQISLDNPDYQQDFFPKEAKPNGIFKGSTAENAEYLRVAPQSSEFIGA
Outline: (§1)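 […] Ba/F3 cells expressing EGFR insertion mutants treated 72 h at 37 °C with 9 concentrations, 3.16-fold dilutions, top 10 μM, 0.1% DMSO, in triplicate. Viability by CellTiter-Glo luminescence with T0 reference plate; IC50 (nM) from non-linear dose-response fit.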

[2] = molecular target: Ba/F3 EGFR-D770-N771ins_SVD (Homo sapiens, UniProt P00533, DUP768-770, cells depend on it); assay: Proliferation experiment of Ba/F3 cell line, EGFR-D770-N771ins_SVD (CellTiter-Glo); details: cultured for 72 hrs with compound, CTG analysis, read-out: Ba/F3 EGFR-D770-N771ins_SVD IC50
Ba/F3 EGFR-D770-N771ins_SVD, sequence (P00533 with tags, fused parts or gaps DUP768-770): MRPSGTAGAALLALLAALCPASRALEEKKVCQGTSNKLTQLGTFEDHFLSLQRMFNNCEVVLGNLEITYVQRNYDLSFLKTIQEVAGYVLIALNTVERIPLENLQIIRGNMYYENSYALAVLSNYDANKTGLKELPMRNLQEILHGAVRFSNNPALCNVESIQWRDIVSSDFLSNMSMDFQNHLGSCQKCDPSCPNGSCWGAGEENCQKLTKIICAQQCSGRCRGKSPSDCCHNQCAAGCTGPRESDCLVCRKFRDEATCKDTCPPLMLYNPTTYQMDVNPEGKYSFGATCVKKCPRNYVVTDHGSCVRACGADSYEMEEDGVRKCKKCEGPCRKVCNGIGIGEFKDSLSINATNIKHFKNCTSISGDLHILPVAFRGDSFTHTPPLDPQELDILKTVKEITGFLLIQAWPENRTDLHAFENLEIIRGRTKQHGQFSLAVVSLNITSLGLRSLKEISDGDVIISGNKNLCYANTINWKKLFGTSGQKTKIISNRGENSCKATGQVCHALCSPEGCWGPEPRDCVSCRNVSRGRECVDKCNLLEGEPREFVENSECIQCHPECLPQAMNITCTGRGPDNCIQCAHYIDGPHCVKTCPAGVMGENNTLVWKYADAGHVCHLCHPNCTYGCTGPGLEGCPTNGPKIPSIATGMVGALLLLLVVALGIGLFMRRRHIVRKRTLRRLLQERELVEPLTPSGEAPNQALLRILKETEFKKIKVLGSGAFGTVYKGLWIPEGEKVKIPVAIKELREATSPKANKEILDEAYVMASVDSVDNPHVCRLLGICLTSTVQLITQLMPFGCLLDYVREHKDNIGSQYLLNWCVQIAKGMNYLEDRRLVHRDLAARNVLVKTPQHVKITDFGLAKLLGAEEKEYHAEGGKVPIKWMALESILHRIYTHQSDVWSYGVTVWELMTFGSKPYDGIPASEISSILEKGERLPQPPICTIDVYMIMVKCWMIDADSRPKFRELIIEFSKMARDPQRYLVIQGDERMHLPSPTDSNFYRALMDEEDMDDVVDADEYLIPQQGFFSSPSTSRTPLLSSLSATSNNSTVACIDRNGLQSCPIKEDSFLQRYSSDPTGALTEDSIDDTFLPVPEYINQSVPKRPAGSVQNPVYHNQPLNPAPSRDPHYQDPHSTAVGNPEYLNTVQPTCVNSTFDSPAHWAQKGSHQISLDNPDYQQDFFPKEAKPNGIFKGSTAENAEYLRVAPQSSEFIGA
Outline: as §1

A431 (EGFR-WT) = assay: Proliferation experiment, A431 cell line (CellTiter-Glo); details: Homo sapiens, A-431; A431 cells, cultured for 72 hrs with compound, CTG analysis

Row | GI50 [1] [nM] | GI50 [2] [nM] | IC50 (A431 (EGFR-WT)) [nM] | Structure (SMILES)
1 | 68.6 | 32.3 | 235 | C=CC(=O)Nc1cc2c(Nc3cccc(-c4c(F)cccc4F)c3)ncnc2cc1OCCCN1CC(N(C)C)C1 [Example 36, N-(4-((2′,6′-difluoro-[1,1′-biphenyl]-3-yl)amino)-7-(3-(3-(dimethylamino)azetidin-1-yl)propoxy)quinazolin-6-yl)acrylamide]
2 | 41.4 | 14.5 | 26 | C=CC(=O)Nc1cc2c(Nc3ccc(F)c(-c4ccccc4)c3)ncnc2cc1OCCCN1CCN(C)CC1 [Example 48, N-(4-((6-fluoro-[1,1′-biphenyl]-3-yl)amino)-7-(3-(4-methylpiperazin-1-yl)propoxy)quinazolin-6-yl)acrylamide]
3 | 2.5 | 1.3 | 19.3 | C=CC(=O)Nc1cc2c(Nc3ccnc(-c4ccccc4F)c3)ncnc2cc1OCCN1CCOCC1 [Example 68, N-(4-((2-(2-fluorophenyl)pyridin-4-yl)amino)-7-(2-morpholinoethoxy)quinazolin-6-yl)acrylamide]
4 | 51.1 | 14.5 | 877 | C=C(F)C(=O)Nc1cc2c(Nc3ccnc(-c4ccccc4F)c3)ncnc2cc1F [Example 93, 2-fluoro-N-(7-fluoro-4-((2-(2-fluorophenyl)pyridin-4-yl)amino)quinazolin-6-yl)acrylamide]
5 | 28.7 | 10.8 | 1070 | C=CC(=O)Nc1cc2c(Nc3cncc(-c4ccccc4F)c3)ncnc2cc1OCCN1CCOCC1 [Example 57, N-(4-((5-(2-fluorophenyl)pyridin-3-yl)amino)-7-(2-morpholinoethoxy)quinazolin-6-yl)acrylamide]
6 | 11.5 | 9.5 | 21.1 | CN(C)C/C=C/C(=O)Nc1cc2c(Nc3ccnc(-c4ccccc4F)c3)ncnc2cc1O[C@@H]1CCN(C)C1 [Example 67, (R,E)-4-(dimethylamino)-N-(4-((2-(2-fluorophenyl)pyridin-4-yl)amino)-7-((1-methylpyrrolidin-3-yl)oxy)quinazolin-6-yl)but-2-enamide]
7 | 31.5 | 23.6 | 431 | C=CC(=O)Nc1cc2c(Nc3ccc(F)c(-c4ccccc4F)c3)ncnc2cc1OCCCN1CCOCC1 [Example 38, N-(4-((2′,6-difluoro-[1,1′-biphenyl]-3-yl)amino)-7-(3-morpholinopropoxy)quinazolin-6-yl)acrylamide]
8 | 42.4 | 11.8 | 215 | C=CC(=O)Nc1cc2c(Nc3cccc(-c4ccc(F)cc4F)c3)ncnc2cc1OCCCN1CCOCC1 [Example 1, N-(4-((2′,4′-difluoro-[1,1′-biphenyl]-3-yl)amino)-7-(3-morpholinopropoxy)quinazolin-6-yl)acrylamide]
9 | 1.9 | 1.4 | 2330 | C=CC(=O)Nc1cc2c(Nc3ccnc(-c4ccccc4F)c3)ncnc2cc1N1CCOCC1 [Example 94, N-(4-((2-(2-fluorophenyl)pyridin-4-yl)amino)-7-morpholinoquinazolin-6-yl)acrylamide]
10 | 106 | 33.9 | 352 | C=CC(=O)Nc1cc2c(Nc3cccc(-c4c(F)cc(F)cc4F)c3)ncnc2cc1OCCCN1CCOCC1 [Example 25, N-(7-(3-morpholinopropoxy)-4-((2′,4′,6′-trifluoro-[1,1′-biphenyl]-3-yl)amino)quinazolin-6-yl)acrylamide]
11 | 11.6 | 3.9 | 173 | C=CC(=O)Nc1cc2c(Nc3ccnc(-c4ccccc4F)c3)ncnc2cc1O[C@@H]1CCN(C2CC2)C1 [Example 113, (R)—N-(7-((1-cyclopropylpyrrolidin-3-yl)oxy)-4-((2-(2-fluorophenyl)pyridin-4-yl)amino)quinazolin-6-yl)acrylamide]
12 | 25.6 | 18 | 271 | C=CC(=O)Nc1cc2c(Nc3ccc(F)c(-c4ccccc4F)c3)ncnc2cc1OCCCN1CCN(C)CC1 [Example 39, N-(4-((2′,6-difluoro-[1,1′-biphenyl]-3-yl)amino)-7-(3-(4-methylpiperazin-1-yl)propoxy)quinazolin-6-yl)acrylamide]
